Data on one substance can be found in paper PMC4673880, “Structure and substrate selectivity of the 750-kDa α6β6 holoenzyme of geranyl-CoA carboxylase” (Nature Communications, 2015).

The target in the experiment is T1, PfGCC (geranyl-CoA carboxylase holoenzyme, α6β6) (Pseudomonas protegens, UniProt Q4K8Z5).
T1 construct: gene atuC; bicistronic; beta N-terminal His6-tagged (tag not removed), alpha untagged; expressed in E. coli BL21 Star (DE3); 750-kDa α6β6 dodecamer; with Geranyl-CoA carboxylase alpha subunit (biotin-containing; BC, BT and BCCP domains)
Put plainly: coupled pyruvate kinase / lactate dehydrogenase assay, ATP hydrolysis as NADH loss at […] nm. Type of experiment: biochemical. The note with it: pH 8.0, 0.5 mM ATP, 8 mM MgCl2, 40 mM KHCO3, 250 mM KCl; cis/trans mixture, only ~25% cis, concentration counted as total; read-out: apparent Km.

For the substance geranyl-CoA, the Michaelis-Menten constant (Km) came out at 50 µM.
